# Experimental data reported in patent US20230357373A1, “METHODS AND COMPOSITIONS FOR […] TREATING FIBROSIS” (Mie University, priority 2019, published 2023).
# Key:
# [1] = system: normal human bronchial epithelial (NHBE) cells; experiment: Apoptosis assay by flow cytometry in normal human bronchial epithelial cells; assay type: cell-based; details: 10 μM, 48 h
# Experimental: More specifically, FIGS. 19A-19B show a flow cytometry analysis of normal human bronchial epithelial (NHBE) cells after culturing for 48 h in DMEM medium containing 10 μM of corisin or of its scrambled sequence. Each treatment group had n=4. Bars indicate the means ±S.D. Statistical analysis by ANOVA with Tukey's test. *p<0.001.
# (§1) The A549 and NHBE cells were cultured in DMEM supplemented with 10% fetal calf serum, 0.03% (w/v) L-glutamine, 100 IU/ml penicillin and 100 μg/ml streptomycin in a humidified, 5% CO2 atmosphere at 37° C. We used A549 cell lines in most experiments because they have higher potential growth and mimic the phenotype of alveolar type II cells more than primary NHBE cells (NPL82, NPL83); and in addition, these primary cells usually easily change phenotype or become senescent after a short period of culture.
# A549 and NBHE cells (4×10^5 cells/well) were seeded into 12-well plates, cultured to sub-confluency, washed and then cultured in serum free medium containing 10% of each bacterial supernatant for 48 h. Non-inoculated hypersaline medium was used as control. The cells were analyzed for apoptosis by flow cytometry (FACScan, BD Biosciences, Oxford, UK) after staining with fluorescein-labelled annexin V and propidium iodide (FITC Annexin V Apoptosis Detection Kit with PI, Biolegend, San Diego, CA). […]
# [2] = system: A549 alveolar epithelial cells; experiment: Apoptosis assay by flow cytometry (annexin V / propidium iodide) in A549 cells; assay type: cell-based, human; details: for apoptosis of alveolar epithelial cells: 10 μM peptide, 24 h
# Experimental: as §1
# (§2) A549 and NBHE cells (4×10^5 cells/well) were seeded into 12-well plates, cultured to sub-confluency, washed and then cultured in serum free medium containing 10% of each bacterial supernatant for 48 h. Non-inoculated hypersaline medium was used as control. The cells were analyzed for apoptosis by flow cytometry (FACScan, BD Biosciences, Oxford, UK) after staining with fluorescein-labelled annexin V and propidium iodide (FITC Annexin V Apoptosis Detection Kit with PI, Biolegend, San Diego, CA). Flow cytometry gating strategy used in the experiments is described in FIGS. 34A-34C. Under physiological conditions, phosphatidylcholine is exposed externally while phosphatidylserine (PS) is located on the inner surface of the lipid bilayer of cellular membranes. See NPL84. During apoptosis, PS is translocated from the cytoplasmic face of the plasma membrane to the cell surface. Id.
# [3] = system: normal human bronchial epithelial (NHBE) cells; experiment: Western blotting of cleaved caspase-3 and Akt in NHBE cell lysates; assay type: cell-based
# Experimental: Each treatment group had n=4. A representative blot of each treatment group is shown.
# FIGS. 19D and 19E show the intensity of the Western blot membrane bands as quantified by densitometry using Image? software. Each treatment group had n=4. Bars indicate the means ±S.D. Statistical analysis was performed by one-tailed Mann-Whitney U test. *p<0.05.
# The cells for Western blot analysis were washed twice with ice-cold phosphate-buffered saline and then lysed in radioimmunoprecipitation assay (RIPA) buffer (10 mM Tris-Cl (pH 8.0), 1 mM EDTA, 1% Triton X-100, 0.1% sodium deoxycholate, 0.1% SDS, 140 mM NaCl, 1 mM phenylmethylsulfonyl fluoride) supplemented with protease/phosphatase inhibitors (1 mM orthovandate, 50 mM β-glycerophosphate, 10 mM sodium pyrophosphate, 5 μg/mL leupeptin, 2 μg/mL aprotinin, 5 mM sodium fluoride). The suspensions were centrifuged (17,000 x g, 10 min at 4° C.), and the protein content was determined using Pierce BCA protein assay kit (Thermo Fisher Scientific Incorporation, Waltham, MA). Equal amounts of cellular lysate protein were mixed with Laemmli sample buffer and separated by SDS-PAGE. […] The intensity of the bands was quantified by densitometry using the public domain NIH imageJ program (Wayne Rasband, NIH, Research Service Branch).
# HFL1 lung fibroblasts = experiment: Apoptosis flow cytometry in lung fibroblasts; assay type: cell-based; details: 10 μg/ml, 48 h
# Experimental: FIGS. 21A and 21B show a flow cytometry analysis of HFL1 lung fibroblasts after culturing for 48 h in DMEM medium containing 10 μg/ml corisin. Each had with n=4.
# as §2
# TGFβ1 TG mice = experiment: Intratracheal instillation of corisin in TGFβ1 TG mice with lung fibrosis; assay type: in vivo, mouse; details: intratracheal once daily for two days, euthanasia day 3, vs control mice
# Source text: To investigate whether corisin can exacerbate the lung fibrotic disease in vivo, we separated TGFβ1 TG mice into three groups with matched level of lung fibrosis (see FIGS. 25A and 25B) and treated them with saline, scrambled peptide or corisin by the intratracheal route once daily for two days before euthanasia on day 3 (see FIG. 6A).
# Under profound anesthesia, we collected bronchoalveolar lavage fluid for biochemical analysis and cell counting. Briefly, bronchoalveolar lavage fluid was performed by cannulating the trachea with a 20-gauge needle and infusing saline solutions into the lungs in accordance with NPL68. The samples were centrifuged and the supernatants were stored at −80° C. until analysis. The cell pellets were re-suspended in physiological saline solution and the number of cells was counted. A nucleocounter from ChemoMetec (Allerød, Denmark) was used for cell counting and the cells were stained with May-Grünwald-Giemsa (Merck, Darmstadt, Germany) to count differential cells. Mice were sacrificed by anesthesia overdose, and the lungs were resected to fix in formalin, embedded in paraffin and prepared for hematoxylin and eosin staining. The severity of lung fibrosis was quantitated based on the Ashcroft criteria. See NPL67. The level of TGFβ1 was measured using a commercial enzyme immunoassay kit from BD Biosciences Pharmingen (San Diego, CA).
# Three groups of TGFβ1 TG mice (each n=5 or n=4) with matched grade (level) of lung fibrosis as assessed by CT score underwent intratracheal instillation of corisin or scrambled peptide or 0.9% NaCl solution on days 1 and 2 and sacrificed on day 3 to evaluate changes in lung inflammation and fibrosis. WT mice (n=3) without lung fibrosis treated with 0.9% NaCl solution were used as controls.
# Staining of terminal deoxynucleotidyl transferase dUTP Nick-End Labeling (TUNEL) was performed at the Biopathology Institute Corporation (Kunisaki, Oita, Japan) by using Alexa Fluor 594 goat anti-rabbit IgG and slow-fade gold-antifade reagent with 4′,6-diamidino-2-phenylindole (DAPI) or by using ApopTag terminal deoxynucleotidyl transferase (Merck Millipore, Burlington, MA), anti-digoxigenin-peroxidase and 3,3′-diaminobenzidine. Quantification of apoptotic areas was performed using the WinROOF software (Mitani Corporation, Tokyo, Japan) and the values were averaged for each individual mouse.
# human Jurkat T cells = experiment: Apoptosis flow cytometry in T cells; assay type: cell-based; details: 10 μg/ml, 48 h
# Experimental: FIGS. 21E and 21F show a flow cytometry analysis of human Jurkat T cells after culturing for 48 h in DMEM medium containing 10 μg/ml corisin. Each treatment group had n=4. Bars indicate the means ±S.D. Statistical analysis was performed by ANOVA with Tukey's test.
# as §2
# [4] = system: A549 alveolar epithelial cells; experiment: Transmission electron microscopy of apoptotic cells; assay type: cell-based, human; details: 5 μM, 16 h
# Experimental: A549 cells (10×10^4 cells/ml) were plated on a collagen-coated 8-well chamber slides (BD Bioscience, San Jose, CA) and cultured until semi-confluent. Cells were serum-starved for 6 h and stimulated with the pro-apoptotic peptide (5 μM) for 16 h. Cells were fixed with 2% fresh formaldehyde and 2.5% glutaraldehyde in 0.1 M sodium cacodylate buffer (pH 7.4) for 2 h at room temperature. After washing with 0.1 M cacodylate buffer (pH 7.4), they were postfixed with 1% OsO4 in the same buffer for 2 h at 4° C. The samples were rinsed with distilled water, stained with 1% aqueous uranyl acetate for 2 h or overnight at room temperature, dehydrated with ethanol and propylene oxide, and embedded in epon (Epon 812 resin, Nakalai). After removal of the cells from the glass, ultra-thin sections (94 nm) were cut, stained with uranyl acetate and Reynolds's lead citrate, and viewed with a transmission electron microscope (JEM-1010, JEOL, Tokyo, Japan).
# [5] = system: human umbilical vein endothelial cells; experiment: Apoptosis flow cytometry in vascular endothelial cells; assay type: cell-based; details: 10 μg/ml, 48 h
# Experimental: FIGS. 21C and 21D show a flow cytometry analysis of human umbilical vein endothelial cells after culturing for 48 h in DMEM medium containing 10 μg/ml corisin. Each group had n=4.
# as §2
sequence,measurement,setting,value
"NRVYNGPAASPVSEGMPIN (listed as Staphylococcus epidermidis) [scrambled peptide, reference compound]",apoptosis of normal human bronchial epithelial cells,[1],did not
same,apoptosis of alveolar epithelial cells,[2],not
IVMPESGGNPNAVNPAGYR (listed as Staphylococcus warneri) [1 amino acid change from Staphylococcus nepalensis derivative],apoptosis of A549 alveolar epithelial cells,"[2]; 5 μM peptide, 48 h",induces apoptosis
"IVMPESSGNPNAVNPAGYR (listed as Staphylococcus cohnii) [corisin, peptide of 19 amino acid residues, segment of transglycosylase 351 IsaA of Staphylococcus nepalensis strain CNDG]",apoptosis of normal human bronchial epithelial cells,[1],significantly enhanced apoptosis
same,Akt activation,[3],decreased
same,cleavage of caspase-3,[3],increased
same,pro-apoptotic activity after heating,"[2]; 5 μM, incubated at 85° C. for 15 min before adding to A549 cells for 48 h",heat-resistant
same,apoptosis of alveolar epithelial cells,[2],induces apoptosis of alveolar epithelial cells
same,apoptotic activity compared with equal protein concentrations of supernatant,"[2]; corisin 5 or 10 μg/ml vs supernatant protein 10 or 100 μg/ml, 48 h",significantly more potent
same,pro-apoptotic effect on A549 cells,"[2]; increasing concentrations of synthetic corisin, 48 h, DMEM",recapitulated the pro-apoptotic effect of the staphylococcal isolate supernatant in a dose dependent manner
same,apoptotic activity on lung fibroblast,HFL1 lung fibroblasts,no apoptotic activity
same,apoptosis of epithelial cells in the lungs,TGFβ1 TG mice,enhanced
same,collagen deposition in the lungs,TGFβ1 TG mice,increased
same,concentration of inflammatory cytokines and chemokines in the lungs,TGFβ1 TG mice,increased
same,"infiltration of macrophages, lymphocytes and neutrophils in the lungs",TGFβ1 TG mice,significantly increased
same,apoptotic activity on lymphocyte cell line,human Jurkat T cells,no apoptotic activity
same,apoptotic property by transmission electron micrographs,[4],confirmed the apoptotic property
same,apoptotic activity on vascular endothelial cell,[5],no apoptotic activity
IIARESNGQLHARNASGAA (listed as Staphylococcus epidermidis) [reference compound],apoptosis of alveolar epithelial cells,[2],no pro-apoptotic effect
